Test results from patent publication US10179174B2, “Method for inducing an immune response and formulations thereof” (priority 2011, dated 2019).

What was measured:
[1] = tested on: CD4; settings: literature; cited from earlier work
[2] = tested on: HSV-1 virus; settings: Peptide J alone; Taylor et al.; cited from earlier work
[3] = tested on: BM cells (iDCs); test: Flow cytometry phenotyping of BM cells (iDCs) incubated with LEAPS heteroconjugates or LPS; assay type: cell-based, BALB/c mice; settings: 14.5 micromoles per well (about 10^6 cells), incubation 24, 48 or 72 hours

For “DGQEEKAGVVSTGLI (H-DGQEEKAGVVSTGLI-NH2) [CEL-1000, ICBL peptide derived from the β-chain of MHC II]”, the “binding to CD4” value [1] is given as “bind to CD4”.

For “DLLKNGERIEKVE [J Peptide, ICBL derived from amino acids 38-50 of the β-2-microglobulin chain of the MHC I molecule]”, the protection against infection [2] is given as “does not induce protection against infection”.

For lipopolysaccharide [LPS], the “upregulation for CD80, CD86 and MHC II compared to untreated cells” value [3] was “significant upregulation”.
